Assay results: patent publication US20070021509A1, “Phosphate transport inhibitors” (priority 2001, published 2007)
Read-outs that look alike come from different tables or passages of the source.

Test system: phosphate uptake by rabbit intestinal Brush Border Membrane Vesicles (BBMV)
Assay: 33PO4 uptake in rabbit intestinal BBMV (HTS), phosphate transporter inhibition in vitro
Type: biochemical
Details: for IC50: read-out: IC50
Method in brief: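 BBMV from duodenal mucosa of male New Zealand White rabbits, diluted to about 0.5-2.0 mg/mL protein. Uptake buffers carried 33PO4 at 200,000 CPM/19 μL. Controls: Na uptake buffer (max), plus 100 μM KH2PO4 pH 7.4 (mid), K uptake buffer (min).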

O=C(Nc1ccccc1)Nc1ccc(Br)cc1P(=O)(O)O [Compound 205]
IC50 (Table 4, phosphate uptake): 1000 to 1500 µM

Cc1cc(C)cc(NC(=O)Nc2ccc(Br)cc2P(=O)(O)O)c1 [Compound 206]
IC50 (Table 4, phosphate uptake): 1000 to 1500 µM

Cc1ccc(NC(=O)Nc2ccc(Br)cc2P(=O)(O)O)cc1 [Compound 207]
IC50 (Table 4, phosphate uptake): 1000 to 1500 µM

CCOC(=O)c1cccc(NC(=O)Nc2ccc(Br)cc2P(=O)(O)O)c1 [Compound 208]
IC50 (Table 4, phosphate uptake): 1000 to 1500 µM

CC(NC(=O)Nc1ccc(Br)cc1P(=O)(O)O)c1cccc2ccccc12 (stereo not drawn) [Compound 209]
IC50 (Table 4, phosphate uptake): > 1500 µM

CC(C)c1ccc(NC(=O)Nc2ccc(Br)cc2P(=O)(O)O)cc1 [Compound 210]
IC50 (Table 4, phosphate uptake): > 1500 µM

O=C(Nc1cccc(Br)c1)Nc1ccc(Br)cc1P(=O)(O)O [Compound 211]
IC50 (Table 4, phosphate uptake): > 1500 µM

CCOc1ccc(NC(=O)Nc2ccc(Br)cc2P(=O)(O)O)cc1 [Compound 212]
IC50 (Table 4, phosphate uptake): > 1500 µM

O=C(Nc1ccc(Cl)cc1)Nc1ccc(Br)cc1P(=O)(O)O [Compound 213]
IC50 (Table 4, phosphate uptake): > 1500 µM

O=C(Nc1cccc(C(F)(F)F)c1)Nc1cccc(C(F)(F)F)c1 [Compound 214]
% Inhib. at 100 μM (Table 5, 100 μM compound): 100%

O=C(Nc1cccc(C(F)(F)F)c1)Nc1cccc(Cl)c1Cl [Compound 215]
% Inhib. at 100 μM (Table 5, 100 μM compound): 96%

O=C(Nc1cccc(C(F)(F)F)c1)Nc1ccc(Cl)c(Cl)c1 [Compound 216]
% Inhib. at 100 μM (Table 5, 100 μM compound): 95%

O=C(Nc1cc(Cl)cc(Cl)c1)Nc1cccc(C(F)(F)F)c1 [Compound 217]
% Inhib. at 100 μM (Table 5, 100 μM compound): 95%

O=C(Nc1cccc(C(F)(F)F)c1)Nc1c(Cl)cccc1Cl [Compound 218]
% Inhib. at 100 μM (Table 5, 100 μM compound): 93%

O=C(Nc1cccc(Cl)c1)Nc1cccc(C(F)(F)F)c1 [Compound 219]
% Inhib. at 100 μM (Table 5, 100 μM compound): 92%

O=C(Nc1cccc(C(F)(F)F)c1)Nc1cc(Cl)ccc1Cl [Compound 220]
% Inhib. at 100 μM (Table 5, 100 μM compound): 92%

O=C(NCc1ccc(Cl)c(Cl)c1)Nc1ccc(Br)cc1P(=O)([O-])[O-].[Na+].[Na+] [Compound 221]
% Inhib. at 100 μM (Table 5, 100 μM compound): 91%

O=C(Nc1cccc(C(F)(F)F)c1)Nc1ccc(F)c([N+](=O)[O-])c1 [Compound 222]
% Inhib. at 100 μM (Table 5, 100 μM compound): 88%

O=C(Nc1cccc(C(F)(F)F)c1)Nc1ccccc1Cl [Compound 223]
% Inhib. at 100 μM (Table 5, 100 μM compound): 85%

O=C(Nc1cccc(C(F)(F)F)c1)Nc1ccc(Cl)cc1Cl [Compound 224]
% Inhib. at 100 μM (Table 5, 100 μM compound): 85%

O=C(Nc1cccc(C(F)(F)F)c1)N1CCc2ccccc21 [Compound 225]
% Inhib. at 100 μM (Table 5, 100 μM compound): 80%

CCOP(=O)(OCC)c1cc(Br)ccc1NC(=O)Nc1cccc(C(F)(F)F)c1 [Compound 226]
% Inhib. at 100 μM (Table 5, 100 μM compound): 77%

O=C(Nc1ccc(Br)cc1)Nc1cccc(C(F)(F)F)c1 [Compound 227]
% Inhib. at 100 μM (Table 5, 100 μM compound): 75%

O=C(Nc1ccc(Cl)cc1)Nc1cccc(C(F)(F)F)c1 [Compound 228]
% Inhib. at 100 μM (Table 5, 100 μM compound): 74%

O=C(Nc1cccc(F)c1)Nc1ccc(Br)cc1P(=O)(O)O [Compound 229]
% Inhib. at 100 μM (Table 5, 100 μM compound): 73%

O=C(Nc1cccc(C(F)(F)F)c1)Nc1ccc(Br)cc1P(=O)(O)O [Compound 230]
% Inhib. at 100 μM (Table 5, 100 μM compound): 49%

COc1ccc(-c2cc(-c3ccco3)on2)cc1 [Compound 231]
% Inhib. at 100 μM (Table 6, 100 μM compound): 74%

c1ccc(Oc2ccc(-c3cc(-c4ccco4)on3)cc2)cc1 [Compound 232]
% Inhib. at 100 μM (Table 6, 100 μM compound): 72%

c1ccc(Oc2ccc(C3=NOC(c4ccco4)C3)cc2)cc1 (stereo not drawn) [Compound 233]
% Inhib. at 100 μM (Table 6, 100 μM compound): 68%

Oc1ccc(C2=NOC(c3ccc(F)cc3)C2)cc1 (stereo not drawn) [Compound 234]
% Inhib. at 100 μM (Table 6, 100 μM compound): 62%

Fc1ccc(C2CC(c3ccc(Oc4ccccc4)cc3)=NO2)cc1 (stereo not drawn) [Compound 235]
% Inhib. at 100 μM (Table 6, 100 μM compound): 54%

Oc1ccc(-c2cc(-c3ccco3)on2)cc1 [Compound 236]
% Inhib. at 100 μM (Table 6, 100 μM compound): 41%

COc1ccc(C2=NOC(c3ccco3)C2)cc1 (stereo not drawn) [Compound 237]
% Inhib. at 100 μM (Table 6, 100 μM compound): 40%

Cn1nc(-c2cc(Cl)cc(Cl)c2O)cc1-c1ccc(Br)cc1 [Compound 238]
% Inhib. at 100 μM (Table 6, 100 μM compound): 16%

COc1ccc(-c2cc(-c3cccc(F)c3)n(C)n2)cc1 [Compound 239]
IC50 (Table 7, phosphate uptake): 101 to 500 µM

COc1ccc(-c2cc(-c3ccco3)n(C)n2)cc1 [Compound 240]
IC50 (Table 7, phosphate uptake): 101 to 500 µM

Cn1nc(-c2ccc(O)cc2)cc1-c1cccc(F)c1 [Compound 241]
IC50 (Table 7, phosphate uptake): 101 to 500 µM

Cn1nc(-c2ccc(O)cc2)cc1-c1ccco1 [Compound 242]
IC50 (Table 7, phosphate uptake): > 1500 µM

Cn1nc(-c2ccc(Oc3ccccc3)cc2)cc1-c1cccc(F)c1 [Compound 243]
IC50 (Table 7, phosphate uptake): > 1500 µM

Cn1nc(-c2ccc(Oc3ccccc3)cc2)cc1-c1ccco1 [Compound 244]
IC50 (Table 7, phosphate uptake): > 1500 µM

CCOP(=O)(OCC)c1cc(Br)ccc1NC(=O)c1ccc(Br)cc1 [Compound 245]
% Inhib. at 100 μM (Table 8, 100 μM compound): 67%

CCCCOc1ccc(C(=O)Nc2ccc(Br)cc2P(=O)(OCC)OCC)cc1 [Compound 246]
% Inhib. at 100 μM (Table 8, 100 μM compound): 57%
